Measured values reported in paper PMC3484517 (The Korean Journal of Physiology & Pharmacology : Official …, 2012).
Read-outs that look alike come from different tables or passages of the source.

Columns and labels:
hERG K+ channel = hERG K+ channel (Homo sapiens, UniProt Q12809); assay: whole-cell patch clamp of hERG; format: cell-based
hERG K+ channel (IKr) = hERG K+ channel (IKr) (Homo sapiens, UniProt Q12809); assay: whole-cell patch clamp of hERG; format: cell-based; conditions: human, HEK293 cells transiently transfected with hERG, pH 7.4
hERG K+ channel (IKr), sequence (Q12809 whole entry): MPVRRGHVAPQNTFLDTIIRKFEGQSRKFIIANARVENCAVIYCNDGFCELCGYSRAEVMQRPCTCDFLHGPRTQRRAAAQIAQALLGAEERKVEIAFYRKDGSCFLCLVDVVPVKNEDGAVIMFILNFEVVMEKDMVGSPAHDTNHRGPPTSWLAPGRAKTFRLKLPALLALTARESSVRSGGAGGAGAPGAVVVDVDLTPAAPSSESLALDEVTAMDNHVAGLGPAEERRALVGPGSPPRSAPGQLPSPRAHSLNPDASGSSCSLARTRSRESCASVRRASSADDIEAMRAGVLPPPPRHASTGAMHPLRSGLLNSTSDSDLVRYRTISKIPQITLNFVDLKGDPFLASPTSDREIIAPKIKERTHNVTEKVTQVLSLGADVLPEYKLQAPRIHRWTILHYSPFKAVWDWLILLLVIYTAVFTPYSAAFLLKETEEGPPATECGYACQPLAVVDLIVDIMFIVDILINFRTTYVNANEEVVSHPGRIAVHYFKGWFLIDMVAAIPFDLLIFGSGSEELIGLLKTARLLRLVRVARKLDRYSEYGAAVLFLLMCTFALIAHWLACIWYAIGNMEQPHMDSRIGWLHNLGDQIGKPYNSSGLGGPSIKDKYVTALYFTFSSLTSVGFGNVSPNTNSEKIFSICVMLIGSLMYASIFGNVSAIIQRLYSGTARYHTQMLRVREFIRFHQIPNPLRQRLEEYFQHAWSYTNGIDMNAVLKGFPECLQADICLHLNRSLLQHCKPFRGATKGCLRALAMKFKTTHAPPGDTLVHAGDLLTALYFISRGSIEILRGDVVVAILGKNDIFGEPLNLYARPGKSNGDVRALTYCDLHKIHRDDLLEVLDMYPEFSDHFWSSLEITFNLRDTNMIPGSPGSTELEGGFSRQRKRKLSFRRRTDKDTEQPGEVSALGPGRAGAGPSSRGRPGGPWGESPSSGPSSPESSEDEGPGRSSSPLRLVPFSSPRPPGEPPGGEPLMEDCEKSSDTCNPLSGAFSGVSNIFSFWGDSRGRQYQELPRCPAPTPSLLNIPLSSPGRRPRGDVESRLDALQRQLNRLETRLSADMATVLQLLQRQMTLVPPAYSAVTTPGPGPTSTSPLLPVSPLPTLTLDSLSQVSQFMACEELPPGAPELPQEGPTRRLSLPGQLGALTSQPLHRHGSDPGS

KCNQ1/KCNE1 (IKs) = KCNQ1/KCNE1 (IKs) (Homo sapiens, UniProt P51787); assay: whole-cell patch clamp of IKs in KCNQ1/KCNE1-cotransfected HEK293 cells; format: cell-based
KCNQ1/KCNE1 (IKs), sequence (P51787 whole entry): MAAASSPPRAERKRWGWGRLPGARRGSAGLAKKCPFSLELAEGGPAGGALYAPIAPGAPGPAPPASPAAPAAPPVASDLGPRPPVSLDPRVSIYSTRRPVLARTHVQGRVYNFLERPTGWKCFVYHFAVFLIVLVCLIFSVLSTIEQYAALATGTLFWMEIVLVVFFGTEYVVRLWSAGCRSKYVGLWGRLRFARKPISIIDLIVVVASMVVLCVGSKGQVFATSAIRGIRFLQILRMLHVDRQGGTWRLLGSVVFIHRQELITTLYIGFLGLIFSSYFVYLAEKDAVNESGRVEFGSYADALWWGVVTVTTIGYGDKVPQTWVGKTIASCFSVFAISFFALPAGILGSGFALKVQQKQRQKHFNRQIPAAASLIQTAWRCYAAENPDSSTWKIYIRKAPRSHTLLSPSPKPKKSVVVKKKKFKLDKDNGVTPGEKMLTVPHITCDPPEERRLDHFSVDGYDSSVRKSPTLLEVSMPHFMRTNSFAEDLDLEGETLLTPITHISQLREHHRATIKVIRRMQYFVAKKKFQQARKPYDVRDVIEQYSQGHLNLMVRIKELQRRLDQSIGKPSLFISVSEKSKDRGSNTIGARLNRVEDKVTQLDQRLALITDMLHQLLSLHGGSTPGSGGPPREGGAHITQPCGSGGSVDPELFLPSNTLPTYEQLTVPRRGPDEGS

KCNJ2 (IK1) = target: T1, KCNJ2 (IK1) (Homo sapiens, UniProt P63252); assay: whole-cell patch clamp of IK1 in KCNJ2-transfected HEK293 cells; format: cell-based
T1 sequence (P63252 1-427): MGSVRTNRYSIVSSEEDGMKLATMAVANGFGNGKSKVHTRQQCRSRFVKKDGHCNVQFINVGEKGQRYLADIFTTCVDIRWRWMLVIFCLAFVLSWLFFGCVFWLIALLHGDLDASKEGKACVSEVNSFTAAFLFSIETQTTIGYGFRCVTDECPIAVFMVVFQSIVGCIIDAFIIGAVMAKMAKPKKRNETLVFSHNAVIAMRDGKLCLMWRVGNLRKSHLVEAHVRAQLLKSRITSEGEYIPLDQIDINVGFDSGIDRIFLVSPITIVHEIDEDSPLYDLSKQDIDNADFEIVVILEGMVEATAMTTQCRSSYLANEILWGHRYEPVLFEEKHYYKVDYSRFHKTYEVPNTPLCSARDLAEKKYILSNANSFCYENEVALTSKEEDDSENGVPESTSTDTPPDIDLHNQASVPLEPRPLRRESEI

[1] = system: ECG intervals (RR, PR, QRS, QT); conditions: adult outpatient population (n=1,048); cited from earlier work
[2] = system: isolated guinea-pig atria; conditions: spontaneously beating isolated guinea-pig atria; cited from earlier work

hERG K+ channel, sequence (Q12809 whole entry): as the sequence (Q12809 whole entry) above

IC50 (KCNQ1/KCNE1 (IKs)): 12.3 ± 1.3 µM | reduction of IKs amplitude (KCNQ1/KCNE1 (IKs); 1 µM sertraline, n=4): 1.5±3.8% | reduction of IKs amplitude (KCNQ1/KCNE1 (IKs); 3 µM sertraline, n=4): 10.3±2.5% | reduction of IKs amplitude (KCNQ1/KCNE1 (IKs); 10 µM sertraline, n=4): 36.6±3.5% | reduction of IKs amplitude (KCNQ1/KCNE1 (IKs); 30 µM sertraline, n=4): 84.0±5.6% | Hill coefficient, IKs inhibition (KCNQ1/KCNE1 (IKs); KCNQ1/KCNE1 HEK293 cells, n=4): 2.5±0.1 | IC50 (KCNQ1/KCNE1 (IKs); human, HEK293 cells transiently cotransfected with KCNQ1/KCNE1, pH 7.4): 15.2 µM | IC50 (KCNJ2 (IK1)): 10.5 µM | reduction of IK1 amplitude (KCNJ2 (IK1); 1 µM sertraline, n=4): 0.7±2.7% | reduction of IK1 amplitude (KCNJ2 (IK1); 3 µM sertraline, n=4): 9.4±1.1% | reduction of IK1 amplitude (KCNJ2 (IK1); 10 µM sertraline, n=4): 45.7±3.9% | reduction of IK1 amplitude (KCNJ2 (IK1); 30 µM sertraline, n=4): 92.5± 1.2% | Hill coefficient, IK1 inhibition (KCNJ2 (IK1); KCNJ2 HEK293 cells, n=4): 2.1±0.2
Structure (SMILES): CN[C@H]1CC[C@@H](c2ccc(Cl)c(Cl)c2)c2ccccc21 [Sertraline]
IC50 (hERG K+ channel): 0.7 µM | Hill coefficient, hERG current inhibition (hERG K+ channel; HEK293 cells, Hill fit, n=4): 1.3±0.02 | inhibition at 1 µM (hERG K+ channel (IKr)): 7.9 ± 1.9% | inhibition at 3 µM (hERG K+ channel (IKr)): 24.2 ± 1.9% | inhibition at 10 µM (hERG K+ channel (IKr)): 60.1 ± 2.7% | inhibition at 30 µM (hERG K+ channel (IKr)): 86.4 ± 1.4% | effect on RR, PR, QRS, and QT intervals [1]: no significant effect | effect on rate of contractions and contractile force [2]: dose-dependent decrease in the rate contractions and in the contractile force
